Biological target: Sentrin-specific protease 7 (Homo sapiens) (UniProt Q9BQF6)
Experiment: inhibition of human SENP7 cleavage activity – biochemical, luminescence, set 2, SAR follow-up (AID 588600)
Details: recombinant SENP7, Z-RLRGG-aminoluciferin, 40 min

Sequence of Sentrin-specific protease 7 (Homo sapiens) (Q9BQF6 706-1050 limits assumed): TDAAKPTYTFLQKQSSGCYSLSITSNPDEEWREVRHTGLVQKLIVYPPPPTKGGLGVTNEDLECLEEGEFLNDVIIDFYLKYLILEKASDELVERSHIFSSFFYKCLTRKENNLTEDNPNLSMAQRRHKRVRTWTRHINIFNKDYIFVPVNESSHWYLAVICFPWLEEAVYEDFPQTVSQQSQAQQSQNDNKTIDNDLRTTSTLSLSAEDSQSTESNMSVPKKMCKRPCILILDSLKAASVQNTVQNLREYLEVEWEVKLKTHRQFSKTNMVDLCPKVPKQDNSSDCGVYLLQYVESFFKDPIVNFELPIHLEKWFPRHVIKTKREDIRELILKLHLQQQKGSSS

Compound	IC50 [µM]
CN(C)c1ccc(/C=C/c2noc(-c3ccccc3O)n2)cc1	1.65
COc1ccccc1OCc1nc(-c2ccccc2Cl)no1	2.08

From PubChem BioAssay AID588600 (Sanford-Burnham Center for Chemical Genomics, 2011)
